Our source for the IC50 values is ChEMBL document CHEMBL6078663, “Cyclopeptide Avellanins D-O with Antimalarial Activity from the Mariana Trench Anemone-Derived Hamigera ingelheimensis MSC5” (J Nat Prod, 2024).

A value given as a limit tells only on which side of the number the result lay.

The assay concerns Plasmodium falciparum. In words: Antimalarial activity against synchronous ring-stage Plasmodium falciparum 3D7 infected in erythrocytes incubated for 48 hrs by fluorescence based method. The class given is functional, organism-based. The settings on record: 3D7, Erythrocyte.
With `C[C@H]1NC(=O)[C@@H](Cc2ccccc2)N(C)C(=O)[C@@H]2CCCN2C(=O)c2ccccc2NC(=O)[C@H](Cc2ccc(O)c(Cl)c2)NC1=O`, the IC50 was 0.19 µM. In turn, `C[C@H]1NC(=O)[C@@H](Cc2ccccc2)N(C)C(=O)[C@@H]2CCCN2C(=O)c2ccccc2NC(=O)[C@H](Cc2ccccc2)NC1=O` returned an IC50 of 9.4 µM. `C[C@H]1NC(=O)[C@@H](Cc2ccccc2)N(C)C(=O)[C@@H]2CCCN2C(=O)c2ccccc2NC(=O)[C@H](Cc2ccc(O)cc2)NC1=O` registered a half-inhibitory concentration (IC50) of 10 µM. The figure for `CN1C(=O)[C@@H]2CCCN2C(=O)c2ccccc2NC(=O)[C@H](Cc2ccccc2)NC(=O)[C@@H](CO)NC(=O)[C@H]1Cc1ccccc1` is 16 µM; for `CN1C(=O)[C@@H]2CCCN2C(=O)c2ccccc2NC(=O)[C@H](Cc2ccccc2)NC(=O)CNC(=O)[C@H]1Cc1ccccc1` it is 3 µM. `C[C@H]1NC(=O)[C@@H](Cc2ccccc2)N(C)C(=O)[C@@H]2CCCN2C(=O)c2ccccc2NC(=O)[C@H](CCO)NC1=O`: the IC50 is over 50 µM.
